Reference: ChEMBL document CHEMBL1145802, “Dual probes for the dopamine transporter and sigma1 receptors: novel piperazinyl alkyl-bis(4'-fluorophenyl)amine analogues as potential cocaine-abuse therapeutic agents” (J Med Chem, 2003)

Assays:
[1] = target: Sodium-dependent dopamine transporter (Rattus norvegicus, UniProt P23977); assay: Binding affinity against dopamine transporter was determined by the displacement of [3H]WIN-35428 radioligand in rat brain; type: tissue-based
[2] = target: Norepinephrine transporter (Rattus norvegicus, UniProt Q9WTR4); assay: Displacement of [3H]nisoxetine from rat brain norepinephrine transporter; type: tissue-based
Norepinephrine transporter, sequence (Q9WTR4 whole entry): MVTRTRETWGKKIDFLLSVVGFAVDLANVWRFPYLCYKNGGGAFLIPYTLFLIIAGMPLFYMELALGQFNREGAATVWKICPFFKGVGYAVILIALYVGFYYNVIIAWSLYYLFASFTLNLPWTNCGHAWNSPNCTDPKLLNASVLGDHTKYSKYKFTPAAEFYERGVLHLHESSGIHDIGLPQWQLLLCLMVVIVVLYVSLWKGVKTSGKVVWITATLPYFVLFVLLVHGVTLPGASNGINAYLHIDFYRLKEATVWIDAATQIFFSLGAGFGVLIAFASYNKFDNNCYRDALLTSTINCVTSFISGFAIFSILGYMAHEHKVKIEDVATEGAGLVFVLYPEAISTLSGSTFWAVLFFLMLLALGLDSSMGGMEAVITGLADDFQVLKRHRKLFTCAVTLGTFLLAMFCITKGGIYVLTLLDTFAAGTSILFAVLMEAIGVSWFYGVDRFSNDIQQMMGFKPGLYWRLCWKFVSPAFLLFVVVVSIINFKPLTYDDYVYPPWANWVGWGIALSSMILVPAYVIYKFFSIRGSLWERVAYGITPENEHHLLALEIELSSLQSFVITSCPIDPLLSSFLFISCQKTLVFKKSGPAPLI

[3] = target: Sodium-dependent serotonin transporter (Rattus norvegicus, UniProt P31652); assay: Binding affinity against serotonin transporter by displacement of [3H]citalopram in rat brain; type: tissue-based
Sodium-dependent serotonin transporter, sequence (P31652 whole entry): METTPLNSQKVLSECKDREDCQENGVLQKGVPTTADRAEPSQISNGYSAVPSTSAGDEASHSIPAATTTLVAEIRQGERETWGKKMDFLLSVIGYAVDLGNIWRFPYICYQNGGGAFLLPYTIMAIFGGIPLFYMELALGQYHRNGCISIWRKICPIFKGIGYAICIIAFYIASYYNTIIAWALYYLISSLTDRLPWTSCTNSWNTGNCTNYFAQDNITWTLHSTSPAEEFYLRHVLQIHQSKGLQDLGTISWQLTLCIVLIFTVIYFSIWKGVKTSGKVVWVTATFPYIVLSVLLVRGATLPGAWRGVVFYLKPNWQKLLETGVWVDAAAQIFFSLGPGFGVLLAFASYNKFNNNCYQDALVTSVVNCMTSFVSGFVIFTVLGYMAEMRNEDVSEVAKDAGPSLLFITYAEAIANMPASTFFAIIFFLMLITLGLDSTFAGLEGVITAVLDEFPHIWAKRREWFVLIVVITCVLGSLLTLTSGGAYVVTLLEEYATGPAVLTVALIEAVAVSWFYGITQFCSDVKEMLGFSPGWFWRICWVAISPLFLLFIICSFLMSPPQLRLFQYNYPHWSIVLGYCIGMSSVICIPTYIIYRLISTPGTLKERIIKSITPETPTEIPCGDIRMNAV

Sigma 2 receptor = assay: Binding affinity against Sigma receptor type 2 was determined by the displacement of [3H]DTG/dextrallorphan radioligand; design: species or system Rattus norvegicus
[4] = target: Monoamine transporters; Norepininephrine & dopamine (Rattus norvegicus) (UniProt P23977+Q9WTR4); assay: Ratio of binding affinities for dopamine and norepinephrine transporters; type: protein assay
[5] = target: Monoamine transporters; serotonin & dopamine (Rattus norvegicus) (UniProt P31652+P23977); assay: Ratio for the binding affinities of dopamine transporter over serotonin transporter; type: protein assay
Monoamine transporters; serotonin & dopamine (Rattus norvegicus), sequence (P23977 whole entry, looked up): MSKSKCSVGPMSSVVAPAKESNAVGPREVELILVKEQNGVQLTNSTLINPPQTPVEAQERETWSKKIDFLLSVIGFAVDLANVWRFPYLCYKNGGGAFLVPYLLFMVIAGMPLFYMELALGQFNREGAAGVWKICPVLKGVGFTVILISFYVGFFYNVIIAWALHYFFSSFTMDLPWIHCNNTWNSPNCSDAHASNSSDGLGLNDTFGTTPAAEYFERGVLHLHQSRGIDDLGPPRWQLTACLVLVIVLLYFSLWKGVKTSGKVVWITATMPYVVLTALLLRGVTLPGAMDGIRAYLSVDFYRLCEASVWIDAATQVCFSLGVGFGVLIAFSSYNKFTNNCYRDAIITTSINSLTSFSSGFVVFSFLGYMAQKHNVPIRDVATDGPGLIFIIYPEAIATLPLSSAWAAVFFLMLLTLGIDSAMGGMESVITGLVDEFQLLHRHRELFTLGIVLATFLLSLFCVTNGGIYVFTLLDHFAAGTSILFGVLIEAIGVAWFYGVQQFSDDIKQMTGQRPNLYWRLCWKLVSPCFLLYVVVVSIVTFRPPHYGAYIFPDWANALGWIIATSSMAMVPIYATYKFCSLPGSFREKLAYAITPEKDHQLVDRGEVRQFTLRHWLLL
Monoamine transporters; serotonin & dopamine (Rattus norvegicus), sequence (P31652 whole entry, looked up): as the sequence (P31652 whole entry) above

Cavia porcellus = species: Cavia porcellus; assay: Ratio of binding affinities for dopamine transporter over sigma-1 receptor

Sodium-dependent dopamine transporter, sequence (P23977 whole entry): as the sequence (P23977 whole entry, looked up) above

Row | Structure (SMILES) | Ki [1] | Ki [2] | Ki [3] | Ki (Sigma 2 receptor) | Ratio [4] | Ratio [5] | Ratio (Cavia porcellus)
1 | Fc1ccc(N(CCCN2CCNCC2)c2ccc(F)cc2)cc1 | 0.0608 µM | 0.396 µM | 0.133 µM | 0.385 µM | 7 | 2 | 23
2 | CCCN1CCC[C@@H](c2cccc(O)c2)C1 [PRECLAMOL] | 3.27 µM |  |  |  |  |  | 
3 | C[C@@H]1CN(CCCn2c3ccccc3c3ccccc32)C[C@@H](C)N1C | 0.436 µM |  |  |  |  |  | 1.3
4 | C[C@@H]1CN(CCCn2c3ccc([N+](=O)[O-])cc3c3cc([N+](=O)[O-])ccc32)C[C@@H](C)N1 | 174 µM |  |  |  |  |  | 
5 | C[C@@H]1CN(CCCN(c2ccc(F)cc2)c2ccc(F)cc2)C[C@@H](C)N1CCc1ccc(Cl)c(Cl)c1 | 0.18 µM |  | 4.35 µM |  |  |  | 
6 | C[C@@H]1CN(CCCN(c2ccccc2)c2ccccc2)C[C@@H](C)N1 |  |  |  |  | 8 | 87 | 0.2
7 | C[C@@H]1CN(CCCn2c3ccccc3c3cc([N+](=O)[O-])ccc32)C[C@@H](C)N1 | 0.109 µM |  |  |  |  |  | 5.5
8 | C[C@@H]1CN(CCCN(c2ccc(F)cc2)c2ccc(F)cc2)C[C@@H](C)N1CCCc1ccccc1 | 0.0228 µM |  |  | 0.0186 µM | 45 | 94 | 0.5
9 | CCN(CC)CCOC(=O)C1(c2ccccc2)CCCC1 | 5.18 µM |  |  |  |  |  | 
10 | C[C@@H]1CN(CCCN(c2ccccc2)c2ccccc2)C[C@@H](C)N1CCCc1ccccc1 |  |  |  |  | 60 | 20 | 1.6
11 | Fc1ccc(N(CCCN2CCN(CCCc3ccccc3)CC2)c2ccc(F)cc2)cc1 | 0.0181 µM | 0.682 µM | 1.21 µM |  | 38 | 67 | 3.7
12 | Fc1ccc(N(CCCN2CCN(Cc3ccccc3)CC2)c2ccc(F)cc2)cc1 | 0.0276 µM | 5.21 µM | 3.73 µM | 0.0781 µM | 190 | 140 | 0.5
13 | C[C@@H]1CN(CCCN(c2ccc(F)cc2)c2ccc(F)cc2)C[C@@H](C)N1 | 0.0771 µM |  |  |  | 219 | 170 | 1.6
14 | C[C@@H]1CN(CCCn2c3ccccc3c3ccccc32)C[C@@H](C)N1CCCc1ccccc1 | 0.263 µM |  |  |  |  |  | 0.4
15 | C[C@@H]1CN(CCCn2c3ccccc3c3cc(N)ccc32)C[C@@H](C)N1 | 2.4 µM |  |  |  |  |  | 2.4
16 | C[C@@H]1CN(CCCN(c2ccccc2)c2ccccc2)C[C@@H](C)N1CCc1ccc(Cl)c(Cl)c1 | 0.272 µM |  |  | 0.216 µM | > 110 | 18 | 0.1
17 | OC(CCN1CCN(CCCN(c2ccc(F)cc2)c2ccc(F)cc2)CC1)c1ccccc1 (configuration not stated) | 0.0085 µM |  | 0.803 µM |  |  |  | 
18 | C[C@@H]1CN(CCCn2c3ccc(Br)cc3c3cc(Br)ccc32)C[C@@H](C)N1 | 3.89 µM |  |  |  |  |  | 1.1
